Results published in ChEMBL document CHEMBL4602732, “Optimizing Pyrazolopyrimidine Inhibitors of Calcium Dependent Protein Kinase 1 for Treatment of Acute and Chronic Toxoplasmosis” (J Med Chem, 2020).

Legend:
[1] = Apparent permeability across apical to basolateral side in MDCK2-MDR1 cells at 2 uM measured after 150 mins by LC-MS/MS analysis; type: ADME, cell-based, Canis lupus familiaris; conditions: dog, mdck-mdr1, […]
[2] = Cytotoxicity against human HepG2 cells assessed as cell growth at 20 uM measured after 72 hrs by cellTiter 96 AQueous non-radioactive cell proliferation assay relative to control; type: cell-based; conditions: read-out: Activity
[3] = tested on: MDR1; assay: Efflux ratio of apparent permeability across basolateral to apical side over apical to basolateral side in MDCK2-MDR1 cells at 2 uM measured after 150 mins by LC-MS/MS analysis; type: ADME, cell-based, Canis lupus familiaris; conditions: dog, MDCK-MDR1
[4] = Protein binding in mouse plasma assessed as unbound fraction at 2 uM measured after 4 hrs by LC-MS/MS analysis; type: ADME, cell-free
[5] = target: Voltage-gated inwardly rectifying potassium channel KCNH2 (Homo sapiens, UniProt Q12809); assay: Inhibition of human ERG expressed in CHOK1 cells by patch-clamp electrophysiology assay; type: cell-based, CHO-K1
[6] = Clearance in human hepatocytes assessed per million cells at 1 uM by LC-MS/MS analysis; type: ADME, cell-based, Hepatocyte
[7] = Oral bioavailability in CD1 mouse at 10 mg/kg administered via gavage by LC-MS/MS analysis; type: ADME, organism-based; conditions: in vivo
[8] = Inhibition of Toxoplasma gondii full-length wild-type C-terminal His-tagged CDPK1 expressed in Escherichia coli BL21(DE3)V2RpAcYc-LIC+LamP using syntide-2 peptide as substrate incubated for 20 to 40 mins by ELISA
[9] = target: T1, Aldehyde oxidase (Homo sapiens, UniProt Q06278); assay: Drug metabolism in human liver S9 fraction assessed as aldehyde oxidase-mediated drug metabolism by measuring rate of parent compound decay at 1 uM measured after 90 mins by LC-MS/MS analysis; type: ADME, subcellular
T1 sequence (Q06278 whole entry): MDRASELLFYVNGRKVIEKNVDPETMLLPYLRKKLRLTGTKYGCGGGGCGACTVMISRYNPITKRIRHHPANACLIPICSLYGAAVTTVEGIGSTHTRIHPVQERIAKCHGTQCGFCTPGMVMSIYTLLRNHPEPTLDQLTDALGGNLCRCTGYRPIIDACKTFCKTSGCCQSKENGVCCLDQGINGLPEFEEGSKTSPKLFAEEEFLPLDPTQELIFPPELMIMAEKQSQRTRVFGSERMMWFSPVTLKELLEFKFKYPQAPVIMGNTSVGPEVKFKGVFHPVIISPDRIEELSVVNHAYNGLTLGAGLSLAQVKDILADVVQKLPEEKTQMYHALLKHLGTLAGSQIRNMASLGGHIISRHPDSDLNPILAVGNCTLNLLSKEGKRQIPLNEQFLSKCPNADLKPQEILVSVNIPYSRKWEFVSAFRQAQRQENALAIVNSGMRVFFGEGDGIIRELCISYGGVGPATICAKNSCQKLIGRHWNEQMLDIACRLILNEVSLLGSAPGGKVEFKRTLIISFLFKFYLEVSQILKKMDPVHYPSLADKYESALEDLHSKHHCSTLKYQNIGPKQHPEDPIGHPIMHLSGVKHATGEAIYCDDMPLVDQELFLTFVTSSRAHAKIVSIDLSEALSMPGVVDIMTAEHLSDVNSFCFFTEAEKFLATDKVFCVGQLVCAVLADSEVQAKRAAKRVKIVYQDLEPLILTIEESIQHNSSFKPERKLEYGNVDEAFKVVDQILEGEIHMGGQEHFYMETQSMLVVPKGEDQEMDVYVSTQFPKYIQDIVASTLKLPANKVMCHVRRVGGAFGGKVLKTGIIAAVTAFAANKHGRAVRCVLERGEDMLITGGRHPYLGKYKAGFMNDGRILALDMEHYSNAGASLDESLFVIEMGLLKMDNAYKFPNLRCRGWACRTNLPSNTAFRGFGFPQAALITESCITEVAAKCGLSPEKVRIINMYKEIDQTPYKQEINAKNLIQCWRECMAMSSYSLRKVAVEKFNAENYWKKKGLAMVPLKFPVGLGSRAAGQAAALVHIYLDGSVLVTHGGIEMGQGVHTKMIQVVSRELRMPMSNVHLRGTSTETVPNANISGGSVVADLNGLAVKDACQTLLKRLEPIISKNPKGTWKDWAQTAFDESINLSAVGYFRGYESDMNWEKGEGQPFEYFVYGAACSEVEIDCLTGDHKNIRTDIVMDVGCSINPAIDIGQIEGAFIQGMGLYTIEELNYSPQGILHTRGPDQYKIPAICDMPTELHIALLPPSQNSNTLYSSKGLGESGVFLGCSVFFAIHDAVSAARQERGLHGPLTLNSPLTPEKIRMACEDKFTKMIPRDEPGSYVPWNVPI

[10] = Cytotoxicity against human SH-SY5Y cells assessed as cell growth at 20 uM measured after 72 hrs by cellTiter 96 AQueous non-radioactive cell proliferation assay relative to control; type: cell-based; conditions: read-out: Activity
[11] = Ratio of drug level in central nervous system to plasma in CD1 mouse at 10 mg/kg, po administered via gavage measured after 8 hrs by LC-MS/MS analysis; type: ADME, organism-based, CNS/Plasma; conditions: central nervous system and plasma
[12] = Cmax in CD1 mouse at 3 mg/kg, iv or 10 mg/kg, po administered via gavage by LC-MS/MS analysis; type: ADME, organism-based; conditions: in vivo
[13] = AUC in CD1 mouse at 3 mg/kg, iv or 10 mg/kg, po administered via gavage by LC-MS/MS analysis; type: ADME, organism-based; conditions: in vivo
[14] = tested on: Toxoplasma gondii; assay: Antiparasitic activity against Toxoplasma gondii type III CTG tachyzoites infected in HFF assessed as reduction in parasite growth; type: functional, organism-based
[15] = Half life in human liver microsomes at 10 uM preincubated for 10 mins followed by NADPH addition by LC-MS/MS analysis; type: ADME, Microsome; conditions: liver microsomes
[16] = Kinetic solubility of the compound in pH 7.4 phosphate buffer measured after 24 hrs by UV-HPLC analysis; type: physicochemical; conditions: pH 7.4, 24 h
[17] = Inhibition of Toxoplasma gondii full-length C-terminal His-tagged CDPK1 G128M mutant expressed in Escherichia coli BL21(DE3)V2RpAcYc-LIC+LamP using syntide-2 peptide as substrate incubated for 20 to 40 mins by ELISA
[18] = Cytotoxicity against MDCK cells assessed as cell growth at 20 uM measured after 72 hrs by cellTiter 96 AQueous non-radioactive cell proliferation assay relative to control; type: cell-based, Canis lupus familiaris; conditions: dog, read-out: Activity
[19] = Cytotoxicity against human CMEC/D3 cells assessed as cell growth at 20 uM measured after 72 hrs by cellTiter 96 AQueous non-radioactive cell proliferation assay relative to control; type: cell-based, hCMEC/D3; conditions: read-out: Activity
[20] = Cytotoxicity against human Caco2 cells assessed as cell growth at 20 uM measured after 72 hrs by cellTiter 96 AQueous non-radioactive cell proliferation assay relative to control; type: cell-based, Caco-2; conditions: read-out: Activity
[21] = tested on: Toxoplasma gondii; assay: Antiparasitic activity against type 2 Toxoplasma gondii ME49 tachyzoites infected in HFF assessed as reduction in parasite growth; type: functional, organism-based
[22] = target: LCK (Homo sapiens, UniProt P06239); assay: Inhibition of wild-type human partial length LCK (R207 to P509 residues) expressed in bacterial expression system at 10 uM by Kinomescan method relative to control
[23] = Half life in mouse liver microsomes at 10 uM preincubated for 10 mins followed by NADPH addition by LC-MS/MS analysis; type: ADME, Microsome; conditions: microsomes, 10 µM
[24] = Cytotoxicity against HFF monolayers assessed as cell growth measured after 72 hrs by luciferase reporter gene assay relative to control; type: cell-based; conditions: human, read-out: Activity
[25] = Protein binding in mouse brain assessed as unbound fraction; type: ADME, tissue-based
[26] = tested on: Toxoplasma gondii; assay: Antiparasitic activity against 2F clone of type 1 Toxoplasma gondii RH tachyzoites expressing beta-galactosidase infected in HFF assessed as reduction in parasite growth measured after 72 hrs by chlorophenol Red-beta-D-galactopyranoside substrate based assay; type: functional, organism-based
[27] = tested on: Src (human) versus Toxoplasma gondii CDPK1; assay: Selectivity ratio of IC50 for inhibition of human Src expressed in Escherichia coli BL21 to IC50 for inhibition of Toxoplasma gondii full-length wild-type C-terminal His-tagged CDPK1 expressed in Escherichia coli BL21(DE3)V2RpAcYc-LIC+LamP; type: toxicity; conditions: read-out: Ratio IC50
[28] = target: Proto-oncogene tyrosine-protein kinase Src (Homo sapiens, UniProt P12931); assay: Inhibition of human Src expressed in Escherichia coli BL21 using Abltide peptide as substrate incubated for 20 to 40 mins by ELISA
[29] = Intrinsic clearance in human liver microsomes at 10 uM preincubated for 10 mins followed by NADPH addition by LC-MS/MS analysis; type: ADME, Microsome; conditions: read-out: CLH
[30] = Half life in CD1 mouse at 3 mg/kg, iv or 10 mg/kg, po administered via gavage by LC-MS/MS analysis; type: ADME, organism-based; conditions: in vivo

Sequence of Proto-oncogene tyrosine-protein kinase Src (P12931 2-536 limits assumed): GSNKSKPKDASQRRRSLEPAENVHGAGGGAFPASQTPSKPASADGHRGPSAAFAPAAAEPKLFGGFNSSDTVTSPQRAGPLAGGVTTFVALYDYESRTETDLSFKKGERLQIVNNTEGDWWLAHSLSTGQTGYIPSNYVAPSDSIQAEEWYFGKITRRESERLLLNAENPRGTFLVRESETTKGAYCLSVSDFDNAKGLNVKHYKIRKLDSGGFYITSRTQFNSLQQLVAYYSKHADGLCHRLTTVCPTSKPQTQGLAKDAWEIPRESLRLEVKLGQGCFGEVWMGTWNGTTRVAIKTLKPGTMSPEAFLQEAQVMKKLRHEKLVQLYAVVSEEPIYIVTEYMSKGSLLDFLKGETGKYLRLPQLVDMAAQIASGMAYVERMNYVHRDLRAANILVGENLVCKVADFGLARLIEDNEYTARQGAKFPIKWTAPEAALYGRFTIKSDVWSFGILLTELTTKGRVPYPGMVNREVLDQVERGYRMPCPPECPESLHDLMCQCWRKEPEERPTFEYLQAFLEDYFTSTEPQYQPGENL
Sequence of Voltage-gated inwardly rectifying potassium channel KCNH2 (Q12809 whole entry): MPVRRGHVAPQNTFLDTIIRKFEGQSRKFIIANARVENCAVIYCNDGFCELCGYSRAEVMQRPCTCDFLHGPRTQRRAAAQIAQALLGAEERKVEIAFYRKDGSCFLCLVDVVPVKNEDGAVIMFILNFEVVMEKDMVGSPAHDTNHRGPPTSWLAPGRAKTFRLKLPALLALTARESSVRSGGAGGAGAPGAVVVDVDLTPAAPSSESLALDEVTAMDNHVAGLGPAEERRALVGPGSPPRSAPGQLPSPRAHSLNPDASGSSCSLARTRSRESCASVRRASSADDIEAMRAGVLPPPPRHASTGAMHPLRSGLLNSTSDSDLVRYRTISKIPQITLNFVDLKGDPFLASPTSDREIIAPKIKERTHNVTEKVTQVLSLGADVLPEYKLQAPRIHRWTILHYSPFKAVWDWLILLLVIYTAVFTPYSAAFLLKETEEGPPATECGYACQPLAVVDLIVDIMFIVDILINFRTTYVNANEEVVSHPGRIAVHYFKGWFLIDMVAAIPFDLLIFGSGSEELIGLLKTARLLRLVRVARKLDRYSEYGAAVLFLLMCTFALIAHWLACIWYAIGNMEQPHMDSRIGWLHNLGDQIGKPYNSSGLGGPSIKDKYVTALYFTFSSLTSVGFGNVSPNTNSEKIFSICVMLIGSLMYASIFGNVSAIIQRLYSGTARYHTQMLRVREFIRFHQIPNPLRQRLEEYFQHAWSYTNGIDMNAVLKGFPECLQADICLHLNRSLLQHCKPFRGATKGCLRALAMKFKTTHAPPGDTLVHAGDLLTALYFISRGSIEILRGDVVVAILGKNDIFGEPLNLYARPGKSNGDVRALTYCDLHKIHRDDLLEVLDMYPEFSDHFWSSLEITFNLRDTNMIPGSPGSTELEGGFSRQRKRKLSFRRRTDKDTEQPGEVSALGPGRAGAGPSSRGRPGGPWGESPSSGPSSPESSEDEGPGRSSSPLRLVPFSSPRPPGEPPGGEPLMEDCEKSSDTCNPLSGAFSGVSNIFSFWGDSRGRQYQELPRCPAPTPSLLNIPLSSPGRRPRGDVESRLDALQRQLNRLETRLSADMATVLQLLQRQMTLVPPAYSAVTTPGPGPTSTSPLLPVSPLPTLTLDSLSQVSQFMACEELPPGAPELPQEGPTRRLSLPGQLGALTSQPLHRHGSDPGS
Sequence of LCK (P06239 whole entry, the tested form may be a part): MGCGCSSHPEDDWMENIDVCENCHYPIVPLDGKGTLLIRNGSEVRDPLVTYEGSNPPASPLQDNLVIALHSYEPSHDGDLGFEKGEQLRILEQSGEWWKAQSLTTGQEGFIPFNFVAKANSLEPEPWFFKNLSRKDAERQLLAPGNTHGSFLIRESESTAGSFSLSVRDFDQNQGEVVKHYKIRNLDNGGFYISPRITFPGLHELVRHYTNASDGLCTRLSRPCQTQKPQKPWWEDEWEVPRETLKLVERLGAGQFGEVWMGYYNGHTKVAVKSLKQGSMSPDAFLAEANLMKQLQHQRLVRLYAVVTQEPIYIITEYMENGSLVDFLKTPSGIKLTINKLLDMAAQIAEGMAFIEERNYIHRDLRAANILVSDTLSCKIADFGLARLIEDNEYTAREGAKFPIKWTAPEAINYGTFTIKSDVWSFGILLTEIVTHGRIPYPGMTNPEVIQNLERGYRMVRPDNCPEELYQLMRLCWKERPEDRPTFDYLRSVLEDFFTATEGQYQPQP

Work on Nc1ncnc2c1c(Oc1cc(C(F)(F)F)ccn1)nn2[C@@H]1CCCC[C@H]1O yielded a Papp [1] of 21.43 ×10⁻⁶ cm/s, a viability at 72 h, 20 µM [2] of 99% and an efflux ratio at […], 2 µM [3] of 1.23. The Fu [4] was 24.3%, the IC50 [5] was over 30 µM and the CLH [6] was under 6.4 µL/min/1e6 cells. For the same compound, the bioavailability [7] was 48.9%, the IC50 [8] was 6.6 nM and the Drug metabolism [9] was under 3.2 µL/min/mg. For the same compound, the viability at 72 h, 20 µM [10] was 105%, the Kp at 8 h [11] was 0.47 and the Cmax [12] was 620 ng/mL. For the same compound, the AUC [13] was 1100 ng·h/mL, the EC50 [14] was 227 nM and the half-life at 10 µM [15] was over 145 min. The Kinetic_solubility [16] was 92.73 µM, the IC50 [17] was over 20 µM and the viability at 72 h, 20 µM [18] was 77.3%. For the same compound, the viability at 72 h, 20 µM [19] was 126%, the viability at 72 h, 20 µM [20] was 100% and the EC50 [21] was 89.6 nM. For the same compound, the inhibition at 10 µM [22] was 45%, the t1/2 [23] was 66 min and the viability at 72 h [24] was 107%. For the same compound, the fraction unbound [25] was 0.041, the EC50 [26] was 77 to 77.5 nM and the selectivity ratio [27] was over 1000. It also gave an IC50 [28] of over 20 µM, a CLint scaled at 10 µM [29] of under 8.6 mL/min/kg and a t1/2 [30] of 2.17 h.
